Experimental data from publication PMC10035947, “Development of novel anilinoquinazoline-based carboxylic acids as non-classical carbonic anhydrase IX and XII inhibitors” (Journal of Enzyme Inhibition and Medicinal Chemistry, 2023).

How the values were obtained:
U251 = assay: NCI SRB assay; format: cell-based, human; details: for GI%: U251, 10 μM; for Growth Percent: U251, 1.00E-5 Molar
MOLT-4 = assay: NCI SRB assay; format: cell-based, human; details: for GI%: MOLT-4, 10 μM; for Growth Percent: MOLT-4, 1.00E-5 Molar
KM12 = assay: NCI SRB assay; format: cell-based, human; details: for GI%: KM12, 10 μM; for Growth Percent: KM12, 1.00E-5 Molar
OVCAR-3 = assay: NCI SRB assay; format: cell-based, human; details: for GI%: OVCAR-3, 10 μM; for Growth Percent: OVCAR-3, 1.00E-5 Molar
NCI-H23 = assay: NCI SRB assay; format: cell-based, human; details: for GI%: NCI-H23, 10 μM; for Growth Percent: NCI-H23, 1.00E-5 Molar
LOX IMVI = assay: NCI SRB assay; format: cell-based, human; details: for GI%: 10 μM; for Growth Percent: 1.00E-5 Molar
HOP-62 = assay: NCI SRB assay; format: cell-based, human; details: for GI%: HOP-62, 10 μM; for Growth Percent: HOP-62, 1.00E-5 Molar
NCI-H226 = assay: NCI SRB assay; format: cell-based, human; details: for GI%: NCI-H226, 10 μM; for Growth Percent: NCI-H226, 1.00E-5 Molar
IGROV1 = assay: NCI SRB assay; format: cell-based, human; details: for GI%: IGROV1, 10 μM; for Growth Percent: IGROV1, 1.00E-5 Molar
SW-620 = assay: NCI SRB assay; format: cell-based, human; details: for GI%: SW-620, 10 μM; for Growth Percent: SW-620, 1.00E-5 Molar
MDA-MB-435 = assay: NCI SRB assay; format: cell-based; details: for GI%: MDA-MB-435, 10 μM; for Growth Percent: MDA-MB-435, 1.00E-5 Molar
TK-10 = assay: NCI SRB assay; format: cell-based, human; details: for GI%: TK-10, 10 μM; for Growth Percent: TK-10, 1.00E-5 Molar
ACHN = assay: NCI SRB assay; format: cell-based, human; details: for GI%: 10 μM; for Growth Percent: 1.00E-5 Molar
UACC-62 = assay: NCI SRB assay; format: cell-based, human; details: for GI%: UACC-62, 10 μM; for Growth Percent: UACC-62, 1.00E-5 Molar
[1] = system: 59 human cancer cell lines representing nine tumour subpanels; assay: NCI SRB assay, panel and subpanel summaries; details: all cell lines; for Mean GI %: 10 μM; for Mean Growth Percent: 1.00E-5 Molar
M14 = assay: NCI SRB assay; format: cell-based, human; details: for GI%: M14, 10 μM; for Growth Percent: M14, 1.00E-5 Molar
SK-MEL-28 = assay: NCI SRB assay; format: cell-based, human; details: for GI%: SK-MEL-28, 10 μM; for Growth Percent: SK-MEL-28, 1.00E-5 Molar
OVCAR-5 = assay: NCI SRB assay; format: cell-based, human; details: for GI%: OVCAR-5, 10 μM; for Growth Percent: OVCAR-5, 1.00E-5 Molar
786-0 = assay: NCI SRB assay; format: cell-based, human; details: for GI%: 786-0, 10 μM; for Growth Percent: 786-0, 1.00E-5 Molar
SNB-75 = assay: NCI SRB assay; format: cell-based, human; details: for GI%: SNB-75, 10 μM; for Growth Percent: SNB-75, 1.00E-5 Molar
SK-MEL-2 = assay: NCI SRB assay; format: cell-based, human; details: for GI%: SK-MEL-2, 10 μM; for Growth Percent: SK-MEL-2, 1.00E-5 Molar
K-562 = assay: NCI SRB assay; format: cell-based, human; details: for GI%: K-562, 10 μM; for Growth Percent: K-562, 1.00E-5 Molar
NCI-H522 = assay: NCI SRB assay; format: cell-based, human; details: for GI%: NCI-H522, 10 μM; for Growth Percent: NCI-H522, 1.00E-5 Molar
hCA II = biological target: T1, hCA II (Homo sapiens, UniProt P00918); assay: stopped flow CO2 hydrase assay; format: biochemical; details: mean from 3 assays
T1 construct: made in house
Description: Carbonic anhydrase inhibition assay
The carbonic anhydrase catalyzed CO2 hydration actions for the quinazoline-based carboxylic acid derivatives (6a-c, 7a-c and 8a-c) were assayed utilizing an instrument of Applied Photophysics stopped-flow, as described previously. The enzymes are recombinant proteins prepared in our lab. Phenol red (at a concentration of 0.2 mM) has been used as indicator, working at the absorbance maximum of 557 nm, with 20 mM Hepes (pH 7.5) as buffer, and 20 mM Na2SO4 (for maintaining constant the ionic strength), following the initial rates of the CA- […]
1.7 to 17 mM for the determination of the kinetic parameters and inhibition constants. For each inhibitor at least six traces of the initial 5-10% of the reaction have been used for determining the initial velocity. The uncatalyzed rates were determined in the same manner and subtracted from the total observed rates. Stock solutions of inhibitor (0.1 mM) were prepared in distilled-deionized water and dilutions up to 0.01 nM were done thereafter with the assay buffer. Inhibitor and enzyme solutions were preincubated together for 15 min at room temperature prior to assay, in order to allow for the formation of the E-I complex. The inhibition constants were obtained by non-linear least-squares methods using PRISM 3 and the Cheng-Prusoff equation, and represent the mean from at least three different determinations.

SF-295 = assay: NCI SRB assay; format: cell-based, human; details: for GI%: SF-295, 10 μM; for Growth Percent: SF-295, 1.00E-5 Molar
HL-60(TB) = assay: NCI SRB assay; format: cell-based, human; details: HL-60(TB); for GI%: 10 μM; for Growth Percent: 1.00E-5 Molar

SMILES: Cc1ccc(-c2nc(Nc3ccc(C(=O)O)cc3)c3ccccc3n2)cc1 [8b, 4-((2-(p-Tolyl)quinazolin-4-yl)amino)benzoic acid]
- GI% (U251): – (Only GI% higher than 20% are shown)
- Growth Percent (U251): 86.94%
- GI% (MOLT-4): 24%
- Growth Percent (MOLT-4): 76.42%
- GI% (KM12): 42%
- Growth Percent (KM12): 57.97%
- GI% (OVCAR-3): 20%
- Growth Percent (OVCAR-3): 79.51%
- GI% (NCI-H23): – (Only GI% higher than 20% are shown)
- Growth Percent (NCI-H23): 87.14%
- GI% (LOX IMVI): 43%
- Growth Percent (LOX IMVI): 57.05%
- GI% (HOP-62): – (Only GI% higher than 20% are shown)
- Growth Percent (HOP-62): 88.98%
- GI% (NCI-H226): 62%
- Growth Percent (NCI-H226): 37.77%
- GI% (IGROV1): – (Only GI% higher than 20% are shown)
- Growth Percent (IGROV1): 92.17%
- GI% (SW-620): – (Only GI% higher than 20% are shown)
- Growth Percent (SW-620): 91.47%
- GI% (MDA-MB-435): – (Only GI% higher than 20% are shown)
- Growth Percent (MDA-MB-435): 100.06%
- GI% (TK-10): – (Only GI% higher than 20% are shown)
- Growth Percent (TK-10): 113.38%
- GI% (ACHN): 24%
- Growth Percent (ACHN): 75.90%
- GI% (UACC-62): – (Only GI% higher than 20% are shown)
- Growth Percent (UACC-62): 95.83%
- Mean GI % [1]: 20%
- Mean Growth Percent [1]: 80.19%
- GI% (M14): – (Only GI% higher than 20% are shown)
- Growth Percent (M14): 80.88%
- GI% (SK-MEL-28): – (Only GI% higher than 20% are shown)
- Growth Percent (SK-MEL-28): 84.51%
- GI% (OVCAR-5): – (Only GI% higher than 20% are shown)
- Growth Percent (OVCAR-5): 95.98%
- GI% (786-0): – (Only GI% higher than 20% are shown)
- Growth Percent (786-0): 85.63%
- GI% (SNB-75): – (Only GI% higher than 20% are shown)
- Growth Percent (SNB-75): 95.80%
- GI% (SK-MEL-2): – (Only GI% higher than 20% are shown)
- Growth Percent (SK-MEL-2): 113.45%
- GI% (K-562): 23%
- Growth Percent (K-562): 76.80%
- GI% (NCI-H522): – (Only GI% higher than 20% are shown)
- Growth Percent (NCI-H522): 91.02%
- Ki (hCA II): 3.9 µM
- GI% (SF-295): 42%
- Growth Percent (SF-295): 57.85%
- GI% (HL-60(TB)): 24%
- Growth Percent (HL-60(TB)): 76.30%

SMILES: Cc1ccc(-c2nc(Nc3cccc(C(=O)O)c3)c3ccccc3n2)cc1 [7b, 3-((2-(p-Tolyl)quinazolin-4-yl)amino)benzoic acid]
- GI% (U251): 21%
- Growth Percent (U251): 78.70%
- GI% (MOLT-4): – (Only GI% higher than 20% are shown)
- Growth Percent (MOLT-4): 89.24%
- GI% (KM12): 32%
- Growth Percent (KM12): 68.03%
- GI% (OVCAR-3): – (Only GI% higher than 20% are shown)
- Growth Percent (OVCAR-3): 85.56%
- GI% (NCI-H23): – (Only GI% higher than 20% are shown)
- Growth Percent (NCI-H23): 95.42%
- GI% (LOX IMVI): – (Only GI% higher than 20% are shown)
- Growth Percent (LOX IMVI): 81.15%
- GI% (HOP-62): – (Only GI% higher than 20% are shown)
- Growth Percent (HOP-62): 84.19%
- GI% (NCI-H226): 25%
- Growth Percent (NCI-H226): 75.32%
- GI% (IGROV1): – (Only GI% higher than 20% are shown)
- Growth Percent (IGROV1): 107.30%
- GI% (SW-620): – (Only GI% higher than 20% are shown)
- Growth Percent (SW-620): 94.08%
- GI% (MDA-MB-435): – (Only GI% higher than 20% are shown)
- Growth Percent (MDA-MB-435): 100.82%
- GI% (TK-10): – (Only GI% higher than 20% are shown)
- Growth Percent (TK-10): 115.15%
- GI% (ACHN): 24%
- Growth Percent (ACHN): 76.34%
- GI% (UACC-62): – (Only GI% higher than 20% are shown)
- Growth Percent (UACC-62): 87.74%
- Mean GI % [1]: 14%
- Mean Growth Percent [1]: 86.13%
- GI% (M14): – (Only GI% higher than 20% are shown)
- Growth Percent (M14): 83.59%
- GI% (SK-MEL-28): – (Only GI% higher than 20% are shown)
- Growth Percent (SK-MEL-28): 97.02%
- GI% (OVCAR-5): – (Only GI% higher than 20% are shown)
- Growth Percent (OVCAR-5): 107.97%
- GI% (786-0): 24%
- Growth Percent (786-0): 76.25%
- GI% (SNB-75): – (Only GI% higher than 20% are shown)
- Growth Percent (SNB-75): 91.06%
- GI% (SK-MEL-2): – (Only GI% higher than 20% are shown)
- Growth Percent (SK-MEL-2): 112.04%
- GI% (K-562): 20%
- Growth Percent (K-562): 80.06%
- GI% (NCI-H522): – (Only GI% higher than 20% are shown)
- Growth Percent (NCI-H522): 86.87%
- Ki (hCA II): 41.7 µM
- GI% (SF-295): 34%
- Growth Percent (SF-295): 65.90%
- GI% (HL-60(TB)): – (Only GI% higher than 20% are shown)
- Growth Percent (HL-60(TB)): 85.11%
